This is an account of results in ChEMBL document CHEMBL5223068, “Novel thiobarbiturates as potent urease inhibitors with potential antibacterial activity: Design, synthesis, radiolabeling and biodistribution study” (Bioorg Med Chem, 2020).

Each structure is given as a SMILES string. ≈ marks a conversion by molar mass, not a printed value. Where only a bound is given, the exact number is not on record here.

Data set [1] has as its system Klebsiella pneumoniae. Description: Antibacterial activity against Klebsiella pneumoniae ATCC 700603 incubated for 18 to 24 hrs by broth microdilution assay. It counts as functional. To be noted: time 18-24 hrs. A general note: Broth dilution looks for growth in wells or tubes with falling amounts of substance.
Data set [2] in a line: Inhibition of urease (unknown origin) incubated for 30 mins by microplate reader based analysis.
For data set [3], the system named is Klebsiella pneumoniae. The experiment in a line: Antibacterial activity against clinical isolate Klebsiella pneumoniae incubated for 18 to 24 hrs by broth microdilution assay. It counts as functional. The settings on record: time 18-24 hrs.
The test system of a further data set is Proteus vulgaris. Description: Antibacterial activity against Proteus vulgaris ATCC 13315 incubated for 18 to 24 hrs by broth microdilution assay. Format: functional. To be noted: time 18-24 hrs.
The next data set relates to Proteus mirabilis. The experiment in a line: Antibacterial activity against clinical isolate Proteus mirabilis incubated for 18 to 24 hrs by broth microdilution assay. It counts as functional. To be noted: time 18-24 hrs.
Data set [4] in a line: Inhibition of urease (unknown origin) assessed as reduction on ammonia production incubated for 15 mins by indophenol reagent based microplate reader assay.
Another data set has as its system Escherichia coli. Description: Antibacterial activity against Escherichia coli incubated for 24 to 48 hrs. Format: functional. To be noted: time 24-48 hrs.
Data set [5] is described as follows: Drug uptake in Swiss albino muscle infected mouse kidney measured upto 180 mins. It counts as ADME, tissue-based. The settings on record: in vivo, 3 h.
Data set [6] in a line: Biodistribution in Swiss albino muscle infected mouse assessed as ratio of infected muscle to normal muscle measured at all time intervals. It counts as ADME, organism-based, Muscle tissue. To be noted: in vivo.
Data set [7] is described as follows: Biodistribution in Swiss albino muscle infected mouse assessed as ratio of infected muscle to normal muscle measured after 30 mins post injection. It counts as ADME, organism-based, Muscle tissue. To be noted: in vivo, 0.5 h.

Regarding `NNC(=O)CC1C(=O)NC(=S)NC1=O`, the MIC (as a rule, the least concentration at which growth counts as inhibited) against Klebsiella pneumoniae [1] stood at 125 µg/mL (≈ 578 µM). In addition, half-maximal inhibition in [2] (IC50) required 60.3 µM.
As to `Cc1cccc(NC(=O)CC2C(=O)NC(=S)NC2=O)c1C`, in data set [2], the IC50 (commonly the point on the concentration scale where inhibition reaches its midpoint) stood at 71 µM.
As to `CC1=C(C(=O)O)N2C(=O)[C@@H](NC(=O)[C@H](N)c3ccccc3)[C@H]2SC1` [CEPHALEXIN ANHYDROUS], the MIC with Klebsiella pneumoniae [3] was > 250 µg/mL; in the data set with Klebsiella pneumoniae [1], 125 µg/mL (≈ 360 µM); against Proteus vulgaris, 125 µg/mL (≈ 360 µM); in the data set with Proteus mirabilis it was 125 µg/mL (≈ 360 µM).
With `NC(=O)NNC(=O)CC1C(=O)NC(=S)NC1=O`, the MIC against Klebsiella pneumoniae [3] was found to be 62.5 µg/mL (≈ 241 µM); against Klebsiella pneumoniae [1], 31.2 µg/mL (≈ 121 µM); with Proteus vulgaris, 16 µg/mL (≈ 61.7 µM). The molecule also yielded an IC50 in data set [2] of 27.1 µM.
The molecule `COC(=O)c1ccc(NC(=O)CC2C(=O)NC(=S)NC2=O)cc1` returned an IC50 in data set [2] of 22.9 µM.
In the case of `CC(C)CNC(=O)CC1C(=O)NC(=S)NC1=O`, in data set [2], the IC50 was 16.9 µM.
`CCCNC(=O)CC1C(=O)NC(=S)NC1=O`: the IC50 in [2] was found to be 11 µM.
With `CCN1C(=O)C(C(c2ccccc2)C2C(=O)N(CC)C(=S)N(CC)C2=O)C(=O)N(CC)C1=S`, the half-maximal inhibitory concentration (IC50) in [4] was determined as 7.45 µM.
The molecule `Cc1ccc(/C=N/NC(=O)CC2C(=O)NC(=S)NC2=O)cc1` gave an IC50 in [2] of 67.7 µM.
Take `O=C1C(C(=O)C(F)(F)F)C(=O)N(c2ccc(-c3ncc(-c4ccccc4)[nH]3)cc2)C(=S)N1c1ccc(Cl)cc1` (stereo unspecified): the MIC against Escherichia coli is ≤ 6.25 µg/mL.
In data set [2], `O=C(CC1C(=O)NC(=S)NC1=O)N/N=C/c1ccccc1O` showed an IC50 of 92.9 µM.
`O=C1NC(=S)NC(=O)C1CC(=O)N1CCOCC1`: the Drug uptake entry in data set [5] was “Active”. Moreover, the MIC in the data set on Klebsiella pneumoniae [3], in the data set on Klebsiella pneumoniae [1], against Proteus vulgaris and against Proteus mirabilis was 62.5 µg/mL (≈ 230 µM) in each case. Further, in data set [2], the IC50 turned out to be 8.21 µM. The Ratio in data set [6] is > 1; in data set [7] it was 3.72.
The molecule `Cc1ccc(NC(=O)CC2C(=O)NC(=S)NC2=O)c(C)c1` gave an IC50 in data set [2] of 75.4 µM.
In turn, `O=C(CC1C(=O)NC(=S)NC1=O)NCCNC(=O)CC1C(=O)NC(=S)NC1=O` had an MIC against Klebsiella pneumoniae [3] of 62.5 µg/mL (≈ 146 µM). The IC50 in [2] is 29.8 µM.
Consider `Cc1cccc(NC(=O)CC2C(=O)NC(=S)NC2=O)c1`, for which the IC50 in [2] amounted to 76.5 µM.
In the data set on Klebsiella pneumoniae [1], `O=C(CC1C(=O)NC(=S)NC1=O)OCc1ccccc1` returned an MIC of 125 µg/mL (≈ 428 µM). The IC50 in data set [2] turned out to be 74.7 µM.
With `CCOC(=O)CC1C(=O)NC(=S)NC1=O`, the minimal inhibitory concentration (MIC) with Klebsiella pneumoniae [3] came to 31.2 µg/mL (≈ 136 µM); against Klebsiella pneumoniae [1] it was 62.5 µg/mL (≈ 271 µM); in the data set with Proteus vulgaris, 31.2 µg/mL (≈ 136 µM). The molecule further gave an IC50 in data set [2] of 10.1 µM.
Take `NC(N)=S` [THIOUREA]: the half-maximal inhibitory concentration (IC50) in [2] was 20 µM; in data set [4] it was ≤ 21.1 µM.
Molecule `O=C(CC1C(=O)NC(=S)NC1=O)Nc1ccc(F)cc1` showed an IC50 in data set [2] of 44.3 µM.
Consider `O=C(CC1C(=O)NC(=S)NC1=O)Nc1ccccc1`, for which half-maximal inhibition in [2] (IC50) was put at 20.8 µM.
On to `CCOC(=O)/C(=C\N(C)C)C1C(=O)NC(=S)NC1=O`, for which the minimum inhibitory concentration (MIC) against Klebsiella pneumoniae [3] came to 62.5 µg/mL (≈ 219 µM); with Klebsiella pneumoniae [1], 31.2 µg/mL (≈ 110 µM); in the data set on Proteus mirabilis, 15 µg/mL (≈ 52.6 µM). The molecule further showed an IC50 in data set [2] of 13.6 µM.
Turning to `O=C(CC1C(=O)NC(=S)NC1=O)N/N=C/c1ccccc1`, in data set [2], the IC50 is 54.4 µM.
`Cc1ccccc1NC(=O)CC1C(=O)NC(=S)NC1=O` displayed an IC50 in [2] of 52.1 µM.
